Literature values in patent US20250135014A1, “TARGETED LINEAR CONJUGATES COMPRISING POLYETHYLENEIMINE AND POLYETHYLENE GLYCOL AND POLYPLEXES COMPRISING THE SAME” (TARGIMMUNE THERAPEUTICS AG, priority 2021, published 2025).

Biological target: EGFR (Homo sapiens, UniProt P00533)
Details: Ruoslahti et al. 2012; Li et al. 2005

Q: With YHWYGYTPQNVI [GE-11] as the sequence, how does the Kd read?
A: The Kd was 22 nM.
